Test results from US12678438B2, “Treatment of cancer with CDK inhibitors” (THE TRUSTEES OF THE UNIVERSITY OF PENNSYLVANIA, priority 2019, dated 2026).

How the values were obtained:
[1] = test system: AR-negative PC3 and DU145 cells; test: Annexin V-FITC apoptosis analysis; type: cell-based, human
Method: (§1) Apoptosis induction was quantified using the Annexin-V and FITC Apoptosis Kit, as per manufacturer's instructions. Briefly LNCaP, VCaP, DU145 and PC3 cells were plated at a density of 5×10^5 cells per well in a 6-well culture plate. After subsequent treatments, the cells were harvested following incubation with a staining solution containing 10 μL propidium iodide and 5 μL Annexin for 10 min and analyzed by flow cytometry (BD FACS Aria II, BD Biosciences, San Jose).

[2] = test system: AR-positive LNCaP and VCaP cells; test: Annexin V-FITC apoptosis analysis; type: cell-based, human
Method: as §1

[3] = test system: AR p-S515; test: Immunoblot of AR p-S515; type: cell-based, human; conditions: LNCaP, 200 nM, 12 h
Method: Cell lysates were prepared with RIPA buffer (Boston Bioproducts, BP-115DG)-10 mM Tris-HCl pH 7.5, 1 mM EDTA, 400 mM NaCl, 0.5% NP-40 and 1 mM DTT, supplemented with protease inhibitor cocktail (Pierce, A32965) and phosphatase inhibitor (Thermo, 1861280). For immunoblotting 200 μg total protein extract was boiled in sample buffer and 15-25 μg aliquots were separated by SDS-PAGE and transferred onto Polyvinylidene Difluoride membrane (GE Healthcare, IPVH00010). The membrane was incubated for one hour in blocking buffer [Tris-buffered saline, 0.1% Tween (TBS-T), 5% nonfat dry milk followed by overnight incubation on a rocker at 4° C. with the primary antibody. Following a wash with TBS-T, the blot was incubated with horseradish peroxidase-conjugated secondary antibody for 2 hrs on a rocker at room temperature. The blots were washed again and signals were visualized using enhanced chemiluminescence system as per manufacturer's protocol (GE Healthcare) or Kwik Quant Imager (Kindle Biosciences). […]

[4] = test system: VCaP CRPC xenograft; test: VCaP CRPC mouse xenograft; type: in vivo
Method: (§2) In vivo efficacy studies were performed in accordance with protocols approved by the Institutional Animal Care and Use Committee (IACUC) at the University of Pennsylvania and in compliance with all regulatory standards. Four to five-week-old male NOD SCID gamma mice (Jackson Lab, 005557) were procured from Jackson Laboratory. In the VCaP experiment, 2×10^6 VCaP prostate cancer cells suspended in 80 μL of RPMI-1640 with 50% Matrigel (BD Biosciences) were implanted subcutaneously into the dorsal flank of the mice. The animals were castrated when the tumor volumes reached approximately 150 mm^3. […] Tumor growth was recorded using digital calipers and tumor volumes were estimated using the formula (π/6) (L×W^2), where L=length and W=width of tumor. Body weight during the study was also monitored. At the end of the treatment regimen the mice were sacrificed and were extracted for further analysis.
(§3) Xenograft tumor pieces were fixed in 4% of formaldehyde for 48 h and paraffin embedded. Paraffin embedded sections from the tumors of treated and untreated mice were deparaffinized, rehydrated and subjected to epitope retrieval stained with a phospho-MED1 antibody (1:4000/1:2000), anti-PSA antibody (1:1000), anti-Ki67 (1:500), or anti-cleaved caspase3 antibody (1:1000) followed by peroxidase-based detection and counterstaining with hematoxylin using the Leica Bond Rxm system. Photographs were taken on a Leica DMI6000B inverted light and fluorescent microscope with a 20× objective. images were assessed and quantified in ImageJ.
Whole blood of the xenograft bearing mice was collected with heparinized blood collecting tubes (Fisherbrand, 02-668-10), and cells were removed from plasma by centrifugation for 10 minutes at 2,000 g at 4° C. The plasma was used to detect PSA levels using the Human PSA ELBA Kit (Abeam, ab113327) following the manufacturer's protocol. In brief, we diluted the mice plasma ten time with Assay Diluent A, and LNCaP culturing media was used as a positive control. Serially diluted standards were used for quantification. 100 μL of each sample was loaded on the human PSA specific antibody coated 96-well plate in duplicates and the plate was incubated overnight at 4° C. to allow the PSA presented in samples to bind to the wells. The wells were then washed, and biotinylated anti-Human PSA antibody was added. After washing away unbound biotinylated antibody, HRP-conjugated streptavidin was added into the wells. The wells were again washed and developed with a TMB substrate solution followed by the addition of the stop solution and colorimetric measurement of the intensity at 450 nm. The concentrations of the PSA in the samples were calculated based on the standard curve.

[5] = test system: AR-negative DU145 xenografts; test: DU145 mouse xenograft; type: in vivo; conditions: 10 mg/kg b.i.d., four weeks
Method: as §2, §3

[6] = residual tumors, 10 mg/kg b.i.d., four weeks

`CN(C)C/C=C/C(=O)Nc1ccc(C(=O)Nc2cccc(Nc3ncc(Cl)c(-c4c[nH]c5ccccc45)n3)c2)cc1` [THZ1] was tested, and the apoptosis [1] was “not observed”, the apoptosis [2] was “induced robust apoptosis” and the “AR p-S515 levels” value [3] was “did not reduce AR p-S515 levels”. The systemic toxicity ([4]; 10 mg/kg b.i.d., four weeks) was “well tolerated with no treatment-related systemic toxicity observed”, the “tumor p-MED1 levels” value ([4]; 10 mg/kg b.i.d., four weeks) was “significant reduction in p-MED1 levels” and the “plasma PSA expression” value ([4]; 10 mg/kg b.i.d., four weeks, vs vehicle treated mice) was “significantly reduced”. For the same compound, the animal weight ([4]; 10 mg/kg twice daily, 4 weeks) was “does not affect the animal weight”, the tumor volume ([4]; castrated mice, 10 mg/kg b.i.d. intraperitoneally, four weeks, vs vehicle) was “dramatic tumor regression” and the “tumor PSA expression (IHC)” value [4, 6] was “loss of PSA expression”. The “tumor apoptosis (cleaved caspase-3)” value [4, 6] was “increased apoptosis”, the tumor necrosis [4, 6] was “necrosis” and the “tumor proliferative activity (KI-67)” value [4, 6] was “reduced proliferative activity”. The “tumor Ki-67” value ([5]; vs vehicle) was “lower Ki-67”, the tumor apoptosis ([5]; vs vehicle) was “increased apoptosis” and the “tumor p-MED1 levels” value ([5]; vs vehicle) was “reduced p-MED1 levels”. The tumor growth ([5]; castrated mice) was “tumor growth inhibition”.
